Test results published in PubChem BioAssay AID179 (DTP/NCI, 2004).
Several values for one entry are separate records, joined by “and”; a condition that tells them apart may be missing. Identical values can stand only once. Activity calls are given as the source filed them.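 Rule for the calls: active = compounds giving half or more protection of infected cells from virus-caused growth loss, again on retest; inactive = the rest.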 Where a SMILES comes first, the peptide text is derived from it.

Test system: CEM cells HIV-1 protection, formazan growth assay
Assay: NCI AIDS Antiviral Assay
Settings: for IC50: measured here: growth of uninfected CEM cells
In short: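 Steps: treat uninfected and HIV-1-infected human CEM cells at five drug levels; quantify growth by soluble formazan; retest any compound reaching 50% protection; classify actives from the retest.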

CC1(C)CC2(C)CC1CC2NC(=O)CCN1CCOCC1 (stereo unspecified)
EC50: > 851 µM
IC50: 676 µM

O=S(=O)([O-])C(F)(F)F.[Ru+2].[Ru+2].c1ccc2c(c1)Cc1ccccc1-2
EC50: > 100 µM
IC50: > 100 µM

CSc1nc(C)cc(Nc2ccc(O)c(CN3CCOCC3)c2)n1
EC50: > 24 µM
IC50: > 24 µM

COc1ccc(S(=O)(=O)N/N=C/c2cc(I)cc([N+](=O)[O-])c2O)cc1OC
EC50: > 355 µM
IC50: 60.3 µM

CCC1c2ccccc2[C@H]2C(c3ccccc3)=NN(c3ccccc3)[C@H]2N1CC (stereo partly specified)
EC50: > 200 µM
IC50: 56.2 µM

COC(=O)C1(Cc2ccc3c(c2)CCC3)Cc2ccc3c(c2C1)CCC3 (stereo unspecified)
EC50: > 200 µM
IC50: 37.2 µM

CCC[CH2][Sn]1([CH2]CCC)[O]Cc2nc(C)ccc2[O]1
EC50: > 14.1 µM
IC50: 3.16 µM

O=S(Cc1ccccn1)c1nc2ccccc2nc1-c1ccccc1 (stereo unspecified)
EC50: > 28.8 µM
IC50: > 28.8 µM

O=C(/C=C/c1ccc(OCCCOc2ccc(/C=C/C(=O)c3ccc(Cl)cc3)cc2)cc1)c1ccc(Cl)cc1
EC50: > 12.9 µM
IC50: > 12.9 µM

O=C1C2N=NNC2C(=O)N1c1ccccc1 (stereo unspecified)
EC50: > 200 µM
IC50: > 200 µM

CC(=O)O[C@@H]1CC[C@]2(C)C3C[C@H](OC(C)=O)[C@]4(C)C(C(C)CCc5nc6ccccc6o5)CCC4C3[C@H](OC(C)=O)C[C@@H]2C1 (stereo partly specified)
EC50: > 50.1 µM
IC50: 8.51 µM

Cc1ccc(-c2[nH]c(=O)n(C3OC(CO)C(O)C(O)C3O)c(=O)c2C#N)cc1 (stereo unspecified)
EC50: > 200 µM
IC50: > 200 µM

O=C1CC(O)CC(=O)C1=C(O)CCCCCCCCCCc1ccccc1 (stereo unspecified)
EC50: > 19.5 µM
IC50: > 19.5 µM

CC(=O)Nc1ccc(/C=C(\NC(=O)c2ccccc2)c2nc3ccc4c(c3[nH]2)C(=O)c2ccccc2C4=O)cc1
outcome: inactive

Oc1ccc(Cl)cc1CN1CCN(Cc2cc(Cl)ccc2O)C1
EC50: > 200 µM
IC50: 1.38 µM

CCOP(=O)(C/C=C/CN(C(=O)OC(C)(C)C)C(=O)OC(C)(C)C)OCC
outcome: inactive

c1ccc(C[P+](c2ccccc2)(c2ccccc2)c2ccccc2)cc1
EC50: > 200 µM
IC50: 3.89 µM

CN1CCN(c2c(Cl)cc(Cl)c3[nH]c4ccccc4c(=O)c23)CC1
EC50: > 2 µM
IC50: 0.977 µM

C#CCC(O)c1ccc(OC)c(OCc2ccccc2)c1 (stereo unspecified)
EC50: > 200 µM
IC50: 69.2 µM

CCOc1ccc(C(C)c2cc3c(cc2OC)OCO3)cc1 (stereo unspecified)
EC50: > 33.1 µM
IC50: 0.468 µM

CCOC(=O)CC1=Nc2ccccc2SC1
outcome: inactive

c1ccc2c3c(ccc2c1)CSCc1ccc2ccccc2c1-3
EC50: > 200 µM

CCOC(=O)Nc1nc2ccccc2[nH]1
EC50: > 200 µM
IC50: 11.2 µM

CC(NC(=O)C(C)NC(=O)C(CC(N)=O)NC(=O)CN)C(=O)NC(CO)C(=O)NC(C)C(=O)NC(CCCN=C(N)N)C(=O)NC(CCCN=C(N)N)C(N)=O (stereo unspecified) (H-GNAASARR-NH2; configuration not given here)
outcome: inactive

COc1ccc(C(C#N)NC23CC4CC(CC(C4)C2)C3)cc1 (stereo unspecified)
outcome: inactive

CCCCCCCCCCCCCCCCOC1OC(CS(=O)(=O)S(=O)(=O)CC2OC(OCCCCCCCCCCCCCCCC)C(O)C(O)C2O)C(O)C(O)C1O (stereo unspecified)
EC50: > 7.94 µM

COC(=O)CCC1(C)C2CCC1(C)/C(=N/O)C2 (stereo unspecified)
EC50: > 200 µM
IC50: > 200 µM

COc1ccc(Nc2nc(C#N)c(N)s2)cc1
EC50: > 490 µM
IC50: 117 µM

COc1ccc2c3c(c(C(=O)O)oc13)C(CCC(=O)O)CC2 (stereo unspecified)
outcome: inactive

NC(=O)c1c(NC=O)ncn1C1OCC(O)C(O)C1O (stereo unspecified)
EC50: > 200 µM
IC50: > 200 µM

CC(=O)Oc1ccc(C[C@H]2COC(=O)[C@@H]2Cc2ccc(OC(C)=O)c(OC(C)=O)c2)cc1OC(C)=O
EC50: > 200 µM
IC50: 17.4 µM

O=C1C(C(O)(C(F)(F)F)C(F)(F)F)CCC1C(O)(C(F)(F)F)C(F)(F)F (stereo unspecified)
outcome: inactive

FC(F)(F)c1nc2c(ccc3[nH]c4c(-c5ccccc5)nccc4c32)[nH]1
EC50: > 28.2 µM
IC50: > 28.2 µM

CC(C)P(=S)(OCc1ccccc1)C(C)C
EC50: > 200 µM
IC50: 126 µM

CC1C2CC(C(S(=O)(=O)O)C2=O)C1(C)C (stereo unspecified)
EC50: > 1000 µM
IC50: > 1000 µM

COc1cc2c(cc1O)C1(Cc3ccc4c(c3[C@@H]1O)OCO4)N(C)CC2 (stereo partly specified)
EC50: > 141 µM
IC50: > 141 µM

CCOC(=O)c1nc2ccccc2nc1Oc1ccc(C(=O)OC)cc1
EC50: > 200 µM
IC50: > 200 µM

CCCCCCCC1C(C)c2c([nH]c3ccccc23)C2C(=O)N(c3ccc(OC)cc3)C(=O)C21 (stereo unspecified)
EC50: > 200 µM
IC50: 10.2 µM

CN(C)c1ccc(-c2ccc(N(C)C)c3n[se]nc23)c2n[se]nc12
EC50: > 200 µM
IC50: > 200 µM

COC1OC2COC(C)(C)OC2C(OC(C)=O)C1NC(=O)N(CCCl)N=O (stereo unspecified)
EC50: > 229 µM
IC50: > 229 µM

CCOC(=O)c1ccc(CSc2ccccc2C(=O)OCC)c([N+](=O)[O-])c1
EC50: > 7.08 µM
IC50: > 7.08 µM

CSCCC(NCc1c(O)ccc2c(-c3ccccc3)cc(=O)oc12)C(=O)O (stereo unspecified)
EC50: > 200 µM
IC50: > 200 µM

COc1ccc(-c2c(C#N)c(N)n(C3OC(COC(C)=O)C(OC(C)=O)C(OC(C)=O)C3OC(C)=O)c(=S)c2C#N)cc1 (stereo unspecified)
EC50: > 200 µM
IC50: 83.2 µM and 115 µM

CC(=O)OC1CN2CCC1CC2 (stereo unspecified)
EC50: > 200 µM
IC50: > 200 µM

COC(=O)C1=C(C(=O)OC)C(C(=O)OC)C(C(=O)OC)C(C(=O)OC)(C(=O)OC)C(C(=O)OC)=C1C(=O)OC (stereo unspecified)
outcome: inactive

COc1cccc(C2CC(=O)c3cccn32)c1 (stereo unspecified)
outcome: inactive

COCCOCCOCCOCCOCCOCCOCCOCCOCCOCCOCCOCCOCCOCCOCCOCCOCC(=O)N(CCn1ccc(NC(c2ccccc2)(c2ccccc2)c2ccccc2)nc1=O)CCn1cnc2nc(NC(=O)c3ccccc3)[nH]c(=O)c21
EC50: > 170 µM
IC50: 85.1 µM

COC(=O)CC1C(COC(C)=O)OC(n2ccc(=O)[nH]c2=O)C1OC(C)=O (stereo unspecified)
EC50: 0.537 µM
IC50: > 200 µM

CC1(C)C(C#N)=[N+]([O-])C(C)(C)N1O
EC50: > 200 µM
IC50: 123 µM

[Cu+2].[O-]/C(=N\N=C/c1cccc(C(F)(F)F)c1)c1ccncc1.[O-]/C(=N\N=C\c1cccc(C(F)(F)F)c1)c1ccncc1
EC50: > 100 µM
IC50: 5.62 µM

Cc1nc(-n2nc(-c3ccccc3)cc2-c2ccccc2)sc1C(=O)/C=C/c1ccc(/C=C/C(=O)c2sc(-n3nc(-c4ccccc4)cc3-c3ccccc3)nc2C)cc1
EC50: > 22.9 µM
IC50: > 22.9 µM

COc1ccccc1NC(=O)/C(=C/c1ccccc1)C(C)=O
EC50: > 24.5 µM
IC50: 18.6 µM

Fc1cccc(Cl)c1C1SCc2nc3cc4ccccc4cc3n21 (stereo unspecified)
EC50: > 200 µM
IC50: 158 µM

Nc1ccc2cc3[nH]c4cc(N)ccc4c3nc2c1
EC50: > 1.35 µM
IC50: 0.339 µM

CN(C)CCNC(=O)c1cccc2c1Oc1cccc([N+](=O)[O-])c1O2
EC50: > 200 µM
IC50: 22.4 µM

Clc1ccc(CN2COc3c(ccc4ccccc34)C2)cc1
EC50: > 200 µM
IC50: 70.8 µM

COC(=O)C1=C2CCC(=O)[C@@]2(C)CC(C)=C(C)C1
outcome: inactive

N=C(N)SC(c1ccccc1)C(O)c1ccccc1 (stereo unspecified)
EC50: > 200 µM
IC50: 91.2 µM

N=c1oc2ccc3ccccc3c2cc1-c1nc2ccccc2c(=O)[nH]1
EC50: > 50.1 µM
IC50: 7.24 µM

O=C(Nc1ccc(Cl)cc1)c1cc2cc(N=Nc3ccccc3Cl)ccc2oc1=O
EC50: > 16.6 µM
IC50: > 16.6 µM

CCOC(=O)NC1=NCCS1
outcome: inactive

[N-]=[N+]=NCc1cccc(Nc2cc(=O)[nH]c(=O)[nH]2)c1
EC50: 49 µM
IC50: > 200 µM

O=C(O)/C(=C\c1ccccc1Cl)S(=O)(=O)c1ccccc1
outcome: inactive

[O-]c1on[n+]2c1Cc1ccccc1C2
EC50: > 200 µM
IC50: > 200 µM

Cc1ccc(/C=C2\CCCCCC2=O)cc1
EC50: > 200 µM
IC50: 182 µM

O=[N+]([O-])c1ccc(N=C/C=C/Nc2ccc([N+](=O)[O-])cc2)cc1
EC50: > 200 µM
IC50: 52.5 µM

CCCCCCCCCC(=O)CC(=O)c1c(O)cccc1O
EC50: > 23.4 µM
IC50: > 23.4 µM

c1ccc2c(Nc3ncco3)cccc2c1
EC50: > 200 µM
IC50: 162 µM

Cc1nc(C)c(C(=O)NNC(=O)c2ccccc2)cc1C(=O)NNC(=O)c1ccccc1
EC50: > 200 µM
IC50: > 200 µM

N#Cc1cccc(C=C2C(=O)c3ccccc3C2=O)c1
EC50: > 36.3 µM
IC50: > 36.3 µM

CC1(C)CC23C4COC(=O)C2CCC1C3CC4=O (stereo unspecified)
EC50: > 117 µM
IC50: 4.07 µM

COC(=O)/C=C/C(=O)C1C(C(=O)OC)C2(C(=O)OC)CCC1(C(=O)OC)N2 (stereo unspecified)
outcome: inactive

CCOC(=O)C(C)c1nc2cc(F)c(F)cc2[nH]c1=O (stereo unspecified)
EC50: > 200 µM
IC50: > 200 µM

CCOC(=O)CC1=NC(C)(C)CC(C)O1 (stereo unspecified)
EC50: > 200 µM
IC50: > 200 µM

CC(C)(C)[Si](C)(C)OCC1OC(n2cnc3c(N)ncnc32)C(O[Si](C)(C)C(C)(C)C)C1O[Si](C)(C)C(C)(C)C (stereo unspecified)
EC50: > 200 µM
IC50: 44.7 µM

C=CCCCC12CCCc3cccc(c31)NC2=O (stereo unspecified)
EC50: > 151 µM
IC50: 63.1 µM

CC[C@](C)(O)C(=O)O[C@H]1C(=O)O[C@@H]2C[C@H]3C(C)=CC(=O)[C@@H](O)[C@]3(C)[C@H]3[C@@]4(O)OC[C@]32[C@@H]1[C@@H](C)[C@H]4O
outcome: inactive

COc1cc2nncc(SC)c2cc1OC
EC50: > 91.2 µM
IC50: 72.4 µM

C=CCCC(C)N(C(=O)OC(C)(C)C)S(=O)(=O)c1ccc(C)cc1 (stereo unspecified)
EC50: > 14.8 µM
IC50: > 14.8 µM

O=C1C2C=CC(C3C=CC2N(Cc2ccccc2)C3=O)N1Cc1ccccc1
outcome: inactive

CN1CCN(Cc2ccccc2)CC1CC#N (stereo unspecified)
EC50: 1.95 µM
IC50: > 200 µM

CC/C(=N/O)C(C)C(=O)CCC(=O)Nc1ccc(Cl)cc1 (stereo unspecified)
EC50: > 83.2 µM
IC50: > 83.2 µM

O=C(N/C(=C\c1ccccc1Cl)c1nc2ccccc2[nH]1)c1ccccc1
outcome: inactive

CN1CN(c2ccccc2)C2(CCN(CCCSc3ccccc3NC(=O)/C=C/c3ccccc3)CC2)C1=O
EC50: > 200 µM
IC50: 3.31 µM

CN1C[C@@H]2CC(=O)CC[C@@H]2C[C@H]1C#N
EC50: > 676 µM
IC50: 339 µM

CCOC(=O)NC(=S)NN(C)C1=NCC(C)(C)S1
EC50: > 200 µM
IC50: > 200 µM

CN=c1ccc2cc3ccc(NC)cc3oc-2c1
EC50: > 200 µM
IC50: 37.2 µM
